From patent US20200383985A1, “Inhibitors of Protease Activated Receptor-2” (Endosome Therapeutics, Inc., priority 2017, published 2020)

Tests used:
[1] = tested on: PKC and cAMP; assay: FRET assays of PKC and cAMP in HEK293 cells; type: cell-based; conditions: HEK293 cells
Protocol: I-343, but not SCH530348, inhibited trypsin stimulation of PKC and cAMP, which thus depend on PAR2 (FIGS. 19G and H). […] The sustained plasma membrane cAMP response to trypsin support the existence of mechanisms that allow persistent PAR2 signaling, which warrant further investigation.
HEK293 cells were cultured in DMEM supplemented with 10% (v/v) FBS (5% CO2, 37° C.). When necessary serum restriction was achieved by replacing culture medium with DMEM containing 0.5% FBS overnight. Cells were transiently transfected using polyethylenimine (PEI) (1:6 DNA:PEI).
HEK293 cells were transiently transfected in 10 cm dishes (˜50% confluency) with Flag-PAR2-HA (2.5 μg) and FRET biosensors CytoEKAR or NucEKAR (2.5 μg) (Jensen, D. D. et al., Sci Transl Med. 2017, 9(392), eaal3447; Thomsen, A. R. B., et al., Cell 2016, 166(4): 907-919). In experiments examining the role of dynamin, cells were transfected with FLAG-PAR2-HA (1.25 μg), FRET biosensor (1.25 μg) and either DynWT-HA, DynK44E-HA or pcDNA3.1 (2.5 μg). At 24 h after transfection, cells were seeded on ViewPlate-96 well plates (PerkinElmer). FRET was assessed 72 h post-transfection, following overnight serum restriction. Cells were equilibrated in HBSS-HEPES (30 min, 37° C.). FRET was measured using a PHERAstar FSX Microplate Reader (BMG LabTech). For CFP/YFP emission ratio analysis, cells were sequentially excited using a CFP filter (425/10 nm) with emission measured using YFP (550/50 nm) and CFP (490/20 nm) filters. FRET was measured before and after stimulation with trypsin (10 nM), NE (100 nM), CS (100 nM), phorbol 12,13-dibutyrate, PDBu (positive control, 1 μM), or vehicle. FRET ratios (donor/acceptor intensity for EKAR, or acceptor/donor intensity for CKAR and Epac) were calculated and corrected to baseline and vehicle treatments to determine ligand-induced FRET (ΔFRET). Treatment effects were determined by comparison of area under the curve values. Signalling inhibitors were dissolved in HBSS-HEPES. PS2 and PS2 inact were dissolved in HBSS-HEPES+1% DMSO. […]

[2] = tested on: PKC and ERK activity; assay: FRET assays of compartmentalized PKC and ERK in DRG neurons; type: cell-based, rat; conditions: I-343 10 μM, SCH530348 100 nM
Protocol: To determine whether trypsin causes PAR2-dependent activation of PKC and ERK, which respectively mediate initial and persistent trypsin-induced hyperexcitability of nociceptors, genetically-encoded Förster Resonance Energy Transfer (FRET) biosensors were expressed in neurons. […] Trypsin (10 or 100 nM) activated PKC at the plasma membrane but not in the cytosol (FIG. 4E-G), and activated ERK in the cytosol and nucleus (FIG. 4H-J). The PAR2 antagonist I-343 (10 μM) inhibited trypsin-induced activation of PKC and ERK, whereas the PAR1 antagonist SCH530348 (100 nM) had no effect (FIG. 4F, I). At the end of experiments, neurons were challenged with the positive controls phorbol 12,13-dibutyrate (PDBu) for EKAR biosensors or PDBu plus phosphatase inhibitor mixture-2 for CKAR biosensors, to ensure that the response of the biosensor was not saturated.
DRG were collected from C57BL/6 mice and Sprague-Dawley rats (all levels). DRG were incubated with collagenase IV (2 mg/ml) and dispase II (1 mg/ml) for 30 min (mice) and 45 min (rats) at 37° C. DRG were dispersed by trituration with a fire-polished Pasteur pipette. Dissociated neurons were transfected with mPAR2-GFP (1 μg), the FRET biosensors CytoEKAR, NucEKAR, pmCKAR or CytoCKAR (all […]), or with the BRET biosensors PAR2-RLuc8 (125 ng) and βARR2-FYP (475 ng) using the Lonza 4D-Nucleofector X unit according to the manufacturer's instructions. Neurons were plated on laminin- (0.004 mg/ml) and poly-L-Lysine- (0.1 mg/ml) coated glass coverslips for confocal microscopy, on ViewPlate-96 plates (PerkinElmer) for FRET assays, or on CulturPlates (PerkinElmer) for BRET assays. Neurons were maintained in Dulbecco's modified Eagle medium (DMEM) containing 10% fetal bovine serum (FBS), antibiotic-antimitotic, and N1 supplement for 48 h before study.
Rat DRG neurons expressing FRET biosensors were serum-restricted (0.5% FBS overnight), and equilibrated in HBSS-HEPES (10 mM HEPES, pH 7.4, 30 min, 37° C.). FRET was analyzed using an Operetta CLS High-Content Imaging System (PerkinElmer) or an INCell Analyzer 2000 G E Healthcare Life Sciences). For CFP/YFP emission ratio analysis, cells were sequentially excited using a CFP filter (410-430 nm) with emission measured using YFP (520-560 nm) and CFP (460-500 nm) filters. Cells were imaged at 1 or 2 min intervals. Baseline was measured, neurons were challenged with trypsin (10 or 100 nM) or vehicle, and responses recorded for a further 30 min. Neurons were then challenged with phorbol 12,13-dibutyrate (PDBu, 200 nM, 10 min) for EKAR biosensors or PDBu (200 nM) and phosphatase inhibitor cocktail-2 (SigmaAldrich, 10 min) for CKAR biosensors. Data were analyzed using Harmony 4.1 or Image J 1.51 software. Images taken were aligned, cells were selected based on diameter, and fluorescence intensity was calculated for both FRET and CFP channels. Background intensity was subtracted and the FRET ratio was determined as the change in the FRET/donor (EKAR) or donor/FRET (CKAR) emission ratio relative to the baseline for each cell (F/Fo). Cells with >5% changes in F/F0 after PDBu stimulation were selected for analysis. Neurons were incubated with I-343 (10 μM), SCH530348 (100 nM) or vehicle (30 min, 37° C. preincubation and inclusion throughout).

## CCOC(=O)N[C@@H]1CC[C@@H]2[C@@H](C1)C[C@H]1C(=O)O[C@H](C)[C@H]1[C@H]2/C=C/c1ccc(-c2cccc(F)c2)cn1 [SCH530348]
[1]
  trypsin stimulation of PKC and cAMP: not
[2]
  trypsin-induced activation of PKC and ERK: no effect
